Results taken from patent US20230148299A1, “FEM1B PROTEIN BINDING AGENTS AND USES THEREOF” (The Regents Of The University Of California, priority 2020, published 2023).

Experiments:
FEM1B-FNIP1 = FEM1B-FNIP1 (Homo sapiens, UniProt Q9UK73); experiment: Fluorescence polarization between FEM1B and FNIP1 (covalent ligand screen); assay type: binding; settings: DMSO = 100, FP between FEM1B and FNIP1
Text: FIG. 11. Fluorescence polarization screen to identify functional FEM1B-FNIP1-targeting covalent ligands.
FEM1B binds a conserved central degron in FNIP1. Deletion analysis of FNIP1 identifies a stretch of 20 amino acids that is required for its binding to FEM1B and its proteasomal degradation. FNIP1 variants were expressed in cells and tested for interaction with ^FLAGFEM1B by co-immunoprecipitation, and for degradation by measuring their abundance in the presence or absence of FEM1B. The FNIP1 degron is required for FEM1B binding and proteasomal degradation. […] FEM1B variants were immunoprecipitated and bound FNIP1 and FLCN were detected by Western blotting. The FNIP1 degron is sufficient to mediate FEM1B-dependent degradation. The FNIP1 degron was fused to GFP (GFP^degron) and expressed from the same plasmid as an IRES controlled mCherry. mCherry provides normalization for GFP fluorescence in each cell. […] Levels of GFP^degron and mCherry were determined by FACS, and their ratio is depicted for presence or absence of FEM1B variants. Deletion of FEM1B prevents FNIP1-degron dependent degradation. The FEM1B locus was deleted in 293T cells using CRISPR/Cas9. Cells were transfected with the GFP^degron/mCherry reporter, and analyzed for GFP and mCherry fluorescence by FACS. FEM1B directly binds the FNIP1 degron in vitro. A TAMRA-labeled FNIP1 degron peptide was incubated with purified FEMIB or the control CRL1 adaptor FBXL17, and binding was measured by fluorescence polarization of the peptide. The FNIP1 degron is sufficient to mediate CUL2^FEM1B-dependent ubiquitylation. The TAMRA-labeled FNIP1 degron was incubated with recombinant CUL2^FEM1B (unmodified or NEDD8-modified), E1, ubiquitin, ATP and the E2 enzymes UBE2D3 and/or UBE2R1. Ubiquitylation was monitored by gel electrophoresis and fluorescence detection.

FEM1B [1] = biological target: T1, FEM1B (Homo sapiens, UniProt Q9UK73); experiment: Gel-based ABPP of EN106 against FEM1B and site identification; assay type: binding; settings: C186
Text: FIGS. 12A-12B. […] FIG. 12A: Gel-based ABPP of EN106 against FEM1B. FIG. 12B: EN106 targets C186 in FEM1B. C186 is critical for substrate recognition of FEM1B. Sequence shown is: […] (residues 183-205 of SEQ ID NO:1).

[2] = tested on: GFP-Fnip1 degron reporter; experiment: GFP-Fnip1 degron reporter (GFP/mCherry) by flow cytometry; assay type: cell-based; settings: HEK293T cells, reporter +/- Fem1b, 20 μM, 8 hours
Protocol: HEK293T cells were transfected 24 hours before flow cytometery with the GFP-Fnip1 degron reporter+/−Fem1b.
FNIP1 variants were expressed in cells and tested for interaction with ^FLAGFEM1B by co-immunoprecipitation, and for degradation by measuring their abundance in the presence or absence of FEM1B. […] FEM1B variants were immunoprecipitated and bound FNIP1 and FLCN were detected by Western blotting. […] The FNIP1 degron was fused to GFP (GFP^degron) and expressed from the same plasmid as an IRES controlled mCherry. mCherry provides normalization for GFP fluorescence in each cell. […] Levels of GFP^degron and mCherry were determined by FACS, and their ratio is depicted for presence or absence of FEM1B variants. […] Cells were transfected with the GFP^degron/mCherry reporter, and analyzed for GFP and mCherry fluorescence by FACS. […] A TAMRA-labeled FNIP1 degron peptide was incubated with purified FEMIB or the control CRL1 adaptor FBXL17, and binding was measured by fluorescence polarization of the peptide. […] The TAMRA-labeled FNIP1 degron was incubated with recombinant CUL2^FEM1B (unmodified or NEDD8-modified), E1, ubiquitin, ATP and the E2 enzymes UBE2D3 and/or UBE2R1. Ubiquitylation was monitored by gel electrophoresis and fluorescence detection.

FEM1B [3] = biological target: T1, FEM1B; experiment: EN106-alkyne pulldown and isoTOP-ABPP in HEK293T cells; assay type: cell-based; parameters: endogenous in cells; host or cells: HEK293T; settings: EN106 10 μM 2 h (isoTOP-ABPP), EN106-alkyne pulldown
Protocol: FIGS. 14A-14C. […] FIG. 14A: Structures of EN106 and EN106-alkyne (NJH-2-030). FIG. 14B: EN106-alkyne pulldown. See Example 4 for experimental procedure. FIG. 14C: HEK293T cells were treated with vehicle or EN106 (10 μM) for 2 h and cell lysates were subjected to the isoTOP-ABPP protocol described in Example 4.
EN106-alkyne pulldown protocol. HEK293T cells were treated with DMSO or 10 μM NJH-2-030 in situ for 8 h. Cells were harvested, lysed via sonication and normalized to 2.0 mg/mL. Following normalization, 100 μL of each lysate sample was removed for Western blot analysis of input, and 500 μL of each lysate sample was incubated for 1 h at room temperature with 10 μL of 5 mM biotin picolyl azide (in water) (Sigma Aldrich 900912), 10 μL of 50 mM TCEP (in water), 30 μL of TBTA ligand (0.9 mg/mL in DMSO:t-butanol=1:4), and 10 μL of 50 mM Copper (II) Sulfate (12.5 mg/mL in water). Proteins were precipitated, washed 3×1 mL with cold MeOH, resolubilized in 1 mL of 1.2% SDS/PBS (w/v), heated for 5 min at 90° C., and centrifuged to remove any insoluble components. […] Proteins in each sample were then analyzed by Western blotting to look for enriched FEM1B versus non-enriched GAPDH.
IsoTOP-ABPP Chemoproteomic Experiment. […] Cells were lysed by probe sonication in PBS and protein concentrations were measured by BCA assay. […]

Sequence of FEM1B-FNIP1 (Q9UK73 whole entry): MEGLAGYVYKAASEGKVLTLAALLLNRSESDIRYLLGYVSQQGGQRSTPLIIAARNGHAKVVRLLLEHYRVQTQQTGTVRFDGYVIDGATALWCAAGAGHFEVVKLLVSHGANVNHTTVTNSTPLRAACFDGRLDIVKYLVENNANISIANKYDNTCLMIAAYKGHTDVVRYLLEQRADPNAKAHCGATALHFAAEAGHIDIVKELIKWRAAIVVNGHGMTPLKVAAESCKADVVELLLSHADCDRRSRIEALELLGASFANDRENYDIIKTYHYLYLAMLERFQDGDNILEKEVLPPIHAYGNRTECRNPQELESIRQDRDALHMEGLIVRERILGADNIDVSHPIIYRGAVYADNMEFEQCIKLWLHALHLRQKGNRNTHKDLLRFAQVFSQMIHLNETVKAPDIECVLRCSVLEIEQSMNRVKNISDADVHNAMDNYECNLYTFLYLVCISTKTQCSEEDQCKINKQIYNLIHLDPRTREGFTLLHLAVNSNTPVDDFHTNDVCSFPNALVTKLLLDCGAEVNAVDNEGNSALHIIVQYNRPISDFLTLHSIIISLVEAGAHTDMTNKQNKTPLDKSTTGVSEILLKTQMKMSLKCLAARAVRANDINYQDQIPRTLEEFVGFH
T1 sequence (Q9UK73 whole entry, the tested form may be a part): as the sequence (Q9UK73 whole entry) above

N#CCCN(C(=O)CCl)c1ccc2c(c1)OCCO2 [EN106, 2-chloro-N-(2-cyanoethyl)-N-(2,3-dihydrobenzo[b][1,4]dioxin-6-yl)acetamide]
remaining activity at 5 µM (FEM1B-FNIP1; compound at 5 μM, read-out: Normalized FP 5 μM): 50.6%
activity at 50 µM (FEM1B-FNIP1; compound at 50 μM, read-out: Normalized FP 50 μM): 4.2%
covalent targeting of FEM1B cysteine (FEM1B [1]): covalently targets C186 on FEM1B
inhibition of FEM1B in cells / FNIP1 stabilization [2]: inhibits endogenous and overexpressed FEM1B in cells and stabilizes FNIP1
FEM1B engagement in cells (FEM1B [3]): engages FEM1B in cells
